Measured values from paper PMC11045757, “Group 3 medulloblastoma transcriptional networks collapse under domain specific EP300/CBP inhibition” (Nature Communications, 2024).
Where “and” joins values, the source holds several entries; their conditions need not be identical. Equal entries are not always repeated. Where two headings read alike, the source gives them in different places.

How the values were obtained:
CBP bromodomain [1] = molecular target: T1, CBP bromodomain (Homo sapiens, UniProt Q92793); test: Differential scanning fluorimetry (DSF) thermal shift; format: binding; conditions: DSF; 5 μM protein, 100 μM compound; three independent experiments, average ± SD
T1 construct: CBP (residues 1081-1197); 6xHis (cleaved yes); host or cells: E. coli BL21 (DE3) RIL
T1 sequence (Q92793 1081-1197): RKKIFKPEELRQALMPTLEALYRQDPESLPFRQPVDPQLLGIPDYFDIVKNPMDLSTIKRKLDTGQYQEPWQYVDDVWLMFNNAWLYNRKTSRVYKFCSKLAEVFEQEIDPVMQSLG

CBP bromodomain [2] = test: as above; format: binding; conditions: ΔTm (CBP)/ΔTm(BRD4)
BRD4-BD1 (BRD4-1) [3] = molecular target: T2, BRD4-BD1 (BRD4-1) (Homo sapiens, UniProt O60885); test: as above; format: binding; conditions: DSF; 5 μM protein, 100 μM compound; three independent experiments, average ± SD
T2 construct: BRD4-BD1 (residues 44-168); 6xHis (cleaved yes); host or cells: E. coli BL21 (DE3) RIL
Summary of the method: (§1)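 Thermal shift of 5 μM E. coli-expressed bromodomain with 100 μM compound in 50 mM HEPES pH 7.5, 150 mM NaCl, 2 mM DTT, 2% DMSO, 5X SYPRO Orange, quadruplicate. Heated 25→95 °C at 1 °C/min, fluorescence at 610 nm; ΔTm relative to DMSO reference wells.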

EP300 bromodomain [4] = molecular target: T3, EP300 bromodomain (Homo sapiens, UniProt Q09472); test: as above; format: binding; conditions: DSF; 5 μM protein, 100 μM compound; three independent experiments, average ± SD
T3 construct: 6xHis (cleaved yes); host or cells: E. coli BL21 (DE3) RIL
T3 sequence (Q09472 1048-1161): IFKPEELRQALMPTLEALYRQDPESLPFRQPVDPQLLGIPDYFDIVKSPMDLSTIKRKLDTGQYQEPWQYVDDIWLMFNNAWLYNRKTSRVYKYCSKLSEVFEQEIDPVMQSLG
Summary of the method: as §1

[5] = system: HDMB03 (HDMBO3) group 3 medulloblastoma cells; test: CellTiter-Glo dose-response growth assay; format: cell-based
Summary of the method: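 Growth of the G3MB line HDMB03 was assessed across compound concentrations. Cells went into 384-well plates at 500 cells per well in growth medium and were exposed to compound for the indicated time. A CellTiter-Glo luminescence assay, run per manufacturer instructions and read on an Envision 2104 instrument, quantified remaining cell growth.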

BRD4-BD1 (BRD4-1) [6] = molecular target: T2, BRD4-BD1 (BRD4-1); test: Isothermal titration calorimetry (ITC); format: binding
Method: (§2) At OD600 of 0.6, the culture was cooled down to 18 °C and induced with 0.1 mM IPTG. After 18 h growth, the culture was harvested by centrifugation at 6000 × g for 25 min and stored at -80 °C. Harvested cell pellets were re-suspended in 50 mM Na/K phosphate buffer (pH 7.4) containing 100 mM NaCl, 40 mM imidazole, 0.01% w/v lysozyme and 0.01% v/v Triton X-100 at 4 °C for 1 h, subjected to sonication and the lysate was clarified by centrifugation (30,000 × g for 45 min at 4 °C). Proteins were purified by FPLC at 4 °C using columns and chromatography materials from GE Healthcare. […] Proteins were purified to homogeneity by size exclusion chromatography using Superdex 75 equilibrated with elution buffer (50 mM HEPES pH 7.5, 100 mM NaCl, 2 mM DTT). All BRDs eluted as monomeric protein and were of crystallization grade quality (>95% purity as judged by SDS-PAGE). Pool fractions were combined, concentrated to 10–12 mg/ml, and aliquots were flash-frozen in liquid N2 and stored at −80 °C.
All experiments were conducted using an PEAQ-ITC calorimeter (Malvern Scientific). BRDs were buffer exchanged using PD10 columns (GE life sciences) into 50 mM HEPES pH7.5 and 100 mM NaCl (ITC buffer) before the experiment and concentrated to ∼10 mg/mL. Experiments were carried out in ITC buffer while stirring at 750 rpm through reverse titration. The microsyringe (40 μL load volume) was loaded with the protein sample (250–600 μM protein in ITC buffer) and inserted into the calorimetric cell (0.2 mL cell volume) consisting of compound (20–60 μM in ITC buffer). All titrations were conducted using an initial control injection of 0.2 μL followed by 13 identical injections (~3 μL per injection) with a duration of 2 s (per injection) and a spacing of 150 s between injections. The ratio of protein/compound was optimized to ensure complete saturation of the titrant before the final injection to ensure proper baseline determination. Data were corrected for dilution and analyzed using the MicroCal Origin software to determine the enthalpies of binding (ΔH) and binding constants as described. Thermodynamic parameters were calculated using the basic equation of thermodynamics (ΔG = ΔH − TΔS = −RTlnKB) where ΔG, ΔH and ΔS are the changes in free energy, enthalpy and entropy of binding, respectively. A single binding site model was used for all ligand-protein interactions.

CBP bromodomain [7] = molecular target: T1, CBP bromodomain; test: Isothermal titration calorimetry (ITC); format: binding; conditions: single ITC experiment, data fit ± SEM
Method: as §2, with “After” for “At OD600 of 0.6, the culture was cooled down to 18 °C and induced with 0.1 mM IPTG. After”, “All BRDs eluted as monomeric protein and were of crystallization grade quality (>95% purity as judged by SDS-PAGE).” left out

EP300 bromodomain [8] = molecular target: T3, EP300 bromodomain; test: Isothermal titration calorimetry (ITC); format: binding; conditions: single ITC experiment, data fit ± SEM
Method: as §2, with “After” for “At OD600 of 0.6, the culture was cooled down to 18 °C and induced with 0.1 mM IPTG. After”, “All BRDs eluted as monomeric protein and were of crystallization grade quality (>95% purity as judged by SDS-PAGE).” left out

MB002 cells = test: ERCC spike-in RNAseq gene expression after 6 h treatment; format: cell-based; conditions: MB002, replicate values, Supplementary Fig 6c
Method: (§3) First, we examined global changes in gene expression induced by drug treatment.
(§4) External RNA consortium control RNAs (ERCC, Ambion) were added directly to Trizol, based on cell number prior to RNA extraction. RNA samples were treated with DNAse I (Invitrogen) prior to recovery. Samples were obtained in biological triplicate. Total RNA was subjected to ribosomal RNA depletion prior to library preparation using the Truseq Stranded Total Library Prep Kit (Illumina) and sequencing on a Nextseq-500 (paired end, 100 bp reads).
(§5) Sequences were aligned using HISAT2 (version 2.1.0)[77] in paired-end mode with default parameters to build version hg19 of the human genome to which the sequences of the ERCC synthetic spike-in RNAs (http://tools.invitrogen.com/downloads/ERCC92.fa) had been added. Per-gene expression was quantified using htseq-count[78] with parameters “-i gene_id --stranded=reverse -f bam -m,” and version 87 of the canonical GRCh37 gene list from RefSeq to which ERCC coordinates were added. TPM-normalized (Transcripts Per Million) expression was then computed for each gene and synthetic ERCC spike-in RNA. Per-gene exon length was calculated across all exons of all isoforms of each gene. The standard TPM-normalization strategy is: normterm = sum of (read count * read length/exon length) across all genes. TPM = read count * read length/exon length * 1e6/normterm. We used a loess regression to normalize the TPM values across all samples of the batch, using only the spike-in values to fit the loess by the “affy” R package[79] with function loess.normalize. This function allowed us to perform loess regression on a matrix of TPM values and used the ERCC subset of data for fitting the loess. The output from this was a matrix of normalized TPM values controlled by ERCC spike-ins.
(§6) We used the elbow method[81] to determine the k value in k-means cluster analysis.
(§7) Dependency analysis was performed using the 22Q4 release of the DepMap dataset, comprising seven medulloblastoma cell lines: UW228, DAOY, ONS76, D458, D425, D283MED, D341MED. Dependency was defined as a Chronos gene effect score of <−0.5, and gene lists were filtered for dependency in >2/7 medulloblastoma cell lines. […] PANTHER was used to define gene annotations, with unknown annotations assigned using individual assessment using the Genecards.org resource.

HDMB03 (HDMBO3) cells = test: as above; format: cell-based; conditions: HDMBO3, replicate values, Supplementary Fig 6c
Method: as §3, §4, §5, §6, §7

[9] = system: MB002 group 3 medulloblastoma cells; test: CellTiter-Glo dose-response growth assay; format: cell-based; conditions: day 3; read-out: d3 IC50 MB002
Summary of the method: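 This is a dose-response growth assay in MB002 cells, a group 3 medulloblastoma line. Cells were plated at 500 cells/well in 384-well plates containing growth media and treated with compound over a concentration series. After the noted incubation period, CellTiter-Glo reagent was applied per the manufacturer's protocol and luminescence was read on an Envision 2104 microplate reader.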

Compound	∆Tm (°C) CBP (CBP bromodomain [1]) [°C]	Ratio CBP/BRD4 of ∆Tm (CBP bromodomain [2])	∆Tm (°C) BRD4-1 (BRD4-BD1 (BRD4-1) [3]) [°C]	∆Tm (°C) EP300 (EP300 bromodomain [4]) [°C]	IC50 ([5]; Homo sapiens, HD-MB03, HDMBO3 G3MB cell growth, read-out: IC50 (nM) HDMBO3) [nM]	reduction of activity against BRD4 (BRD4-BD1 (BRD4-1) [6]; relative to CCS1477)	Kd (BRD4-BD1 (BRD4-1) [6]; single ITC experiment, data fit ± SEM) [nM]	Kd (CBP bromodomain [7]) [nM]	Kd (EP300 bromodomain [8]) [nM]	Normalized MYC expression (MB002 cells)	Normalized MYC expression (HDMB03 (HDMBO3) cells)	IC50 ([5]; day 3, read-out: d3 IC50 HDMBO3) [nM]	IC50 [9] [nM]
Cc1noc(C)c1-c1ccc2c(c1)nc(C1CCCC(=O)N1)n2C1CCC(NC(=O)OC(C)(C)C)CC1 (stereo not shown) [Compound 1]	7.8 ± 0.43	3.7	2.1 ± 0.06	7.3 ± 1.3	> 100000	~ 10 fold	4210 ± 400	1550 ± 600	2300 ± 386				
Cc1sc2c(c1C)C(c1ccc(Cl)cc1)=N[C@@H](CC(=O)OC(C)(C)C)c1nnc(C)n1-2 [JQ1]										0.8713 and 1.005 and 0.8421	0.9657 and 0.7621 and 0.679	100	107
